Converted amounts (≈) assume the structure as drawn.
Tests used:
HIV-1 integrase = molecular target: T1, HIV-1 integrase (Human immunodeficiency virus type 1 group M subtype B, UniProt P04585); assay: Test of sample inhibition to HIV-1 integrase (ELISA, strand transfer); format: biochemical
T1 construct: purified HIV-1 integrase is added to donor substrates coated 96-well plate; made in house
Procedure: The half-inhibitory concentration IC50 for 3′ excision of the substrate and the strand transfer is in the range of 88.92-10.20 μg/ml, in which the best inhibitory activity of the compound is higher than that of the monomer compound of hydroxybenzoic acid. The mechanism of the HIV-1 integrase is a two-step reaction: 1) 3′ Processing: the integrase binds to the specific sequences of the long terminal repeat region (LTR) of the proviral DNA to form a stable complex, then the endonucleotides of 3′ end of nucleoside is processed, and the GT dinucleotide of the sequence . . . […] Thus, the activity of the integrase inhibitor is embodied in inhibiting the excision of the 3′end of the viral DNA or the strand transfer, and is represented by a half-inhibitory concentration IC50.
In vitro integrase test, 30 synthetic oligonucleotides are used as donor substrates, 20 synthetic oligonucleotides are used as target substrates. Purified HIV-1 integrase is added to donor substrates coated 96-well plate, ELISA reaction is performed, the product of the strand transfer of target DNA is detected, color development is conducted by biotin-labeled alkaline phosphatase system, and the microplate reader is used to measure the OD value.
First, inhibitors of the enzyme may be screened by adding a sample to the reaction system. Before use, the sample is prepared with DMSO to an appropriate concentration, and then is diluted 5 times at 4 dilutions. The sample after dilution is added into the donor substrate coated 96-well plate, and then added to the reaction Buffer containing the genetically engineered target enzyme and the biotin-target substrate, incubated under optimal reaction conditions, and colored by biotin-labeled alkaline phosphatase system, and the OD value for absorbance value at 405 nm is measured.
30 synthetic oligonucleotides are used as donor substrates, 20 synthetic oligonucleotides are used as target substrates, purified HIV-1 integrase is added to donor substrates coated 96-well plate, ELISA reaction is performed, the product of the strand transfer of target DNA is detected, color development is conducted by biotin-labeled alkaline phosphatase system, and the OD value is measured by a microplate reader. The addition of samples to the reaction system can be used to screen inhibitors for the enzyme.
1. HIV-1 IN: it is extracted and saved by Chinese National New Drug Screening Center and Institute of Pharmaceutical Biotechnology under Chinese Academy of Medical Sciences.
2. Sample Treatment: 10 samples A1-A10 dissolved into DMSO prior to use are prepared into suitable concentrations, and then diluted 5 times at 4 dilutions. Donor substrate and target substrate are from Shanghai Biochemical Synthesis.
3. Method for Test: the samples after dilution are added into the donor substrate coated 96-well plate, then added to the reaction Buffer containing the genetically engineered target enzyme and the biotin-target substrate, incubated under optimal reaction conditions, and colored by biotin-labeled alkaline phosphatase system, and the OD value for absorbance value at 405 nm is measured.

[1] = system: human umbilical vein endothelial cell line (ECV304); assay: MTT in vitro cell inhibition; format: cell-based; conditions: 3 days
Excerpt: An effective amount of the above compounds and/or the compositions containing the same used as an active ingredient have an effect on inhibiting the tumor cells. The present invention detects the inhibitory effect of the hydroxy-substituted benzophenone compounds on the proliferation of the in vitro cultured human tumor cells by the methylthiazolyl tetrazolium method.
The method is used to detect cell viability. […] Particles can be dissolved by dimethyl sulfoxide (DMSO) isopropyl alcohol or 10% acidified SDS (sodium dodecyl sulfate), and a microplate reader is used to measure the OD value at A570 wavelength, which indirectly reflects the number of live cells. The method is used for detection of the cytokines bioactivity, as well as anti-tumor drugs and tumor radiosensitivity and cytotoxicity test, and has the characteristics of being simple, fast, economical, sensitive and accurate and having good reproducibility and no need to use radionuclides. This method has been widely used in screening preclinical anticancer drugs and detecting the drug sensitivity of fresh tumor cells. The method is as below:
(1) The tumor cell suspension prepared by 0.25% of trypsin digestion and adjusted to a cell concentration of 10^5/ml with RPMI1640 containing 10% fetal calf serum is added to a 96-well plate with 100 μl for each well, cultured 24 hours, and then different dosages of drugs are added with 100 μl/well, for which, the negative control groups, positive control groups and withering wells are set, and 4 parallel wells are set for each group.
(2) They are continually cultured in incubator containing 5% of CO2 at 37° C. for 24 to 48 hours. MTT solution (5 g/L) is added to each well before the termination of the experiment. The OD value at A570 nm is detected by microplate reader. The OD value at A570 of the negative group without the addition of drugs is taken as a control. The cell survival rate and cell inhibition rate of drugs are calculated according to the following formula: Cell survival rate=(OD value of test group/OD value of control group)×100% Cell inhibition rate (%)=(OD value of the control group−OD value of the test group/(OD value of the control group−OD value of the blank group)
1. Tumor cell lines: human glioma cell line (U251), human colon cancer cell line (LOVO), human hepatoma cell line (HepG2), human lung cancer cell line (PC84045), human endometrial carcinoma cell line (JEC), human renal carcinoma (GRC), human gastric cancer cell line (MCG804), human cervical cancer cell line (HeLa), human hepatocellular carcinoma cell line (BEL-7402) and human umbilical vein endothelial cell line (ECV304) purchased from Animal Experimental Center of Zhongshan Medical College, and preserved by the present laboratory.
The tumor cell lines are cultured in RPMI-1640 medium containing 15% of the newborn bovine serum in a conventional manner, placed in the humidification incubator containing 5% of CO2 for being cultured at 37° C., and are observed for growth by an inverted microscope. A subculture is conducted every about 3-5 days, the cells in logarithmic growth phase are adopted to be digested with 0.25% of trypsin, and the serum-free RPMI-1640 medium is used for culturing the cell suspension; the blood counting plate makes counting, the trypan blue exclusion tests the cell activity, and the cell viability>95% is used for formal tests.
Liquid preparation: the compounds are labeled with the codes respectively, DMSO is used to dissolve each compound, the bacterial filter is used to remove bacteria, and each compound is prepared into 10^−4 g/ml, 10^−5 g/ml, 10^−6 g/ml and preserved at 4° C. for use. […]

Vero cells = assay: Half toxic concentration in the anti-herpes screening; format: cell-based, African green monkey
Procedure: Vero cells (kidney cells of African green monkey) are used as viral hosts to test the inhibition degree of the samples to cytopathic effects of the Vero cell caused by herpes virus type I and type II. 2. Sample treatment: the sample is dissolved in DMSO at an appropriate concentration before use, and diluted with the culture medium 3 times at a total of 8 dilutions for test. 4.

## O=C(c1cc(O)c(O)cc1O)c1ccc(O)c(O)c1O
HIV-1 integrase
  IC50: 37.8 µM
[1]; ECV304, 10^−4 g/ml
  Inhibitory rate %: 72.41%
[1]; ECV304, 10^−5 g/ml
  Inhibitory rate %: 53.62%
[1]; ECV304, 10^−6 g/ml
  Inhibitory rate %: 30.75%
Vero cells
  TC50 half toxic concentration: 86.23 µg/mL (≈ 310 µM)

## O=C(c1ccc(O)c(O)c1O)c1ccc(O)c(O)c1O [2,3,4,2′,3′,4′-hexahydroxybenzophenone]
HIV-1 integrase
  IC50: 32.8 µM
[1]; ECV304, 10^−4 g/ml
  Inhibitory rate %: 79.37%
[1]; ECV304, 10^−5 g/ml
  Inhibitory rate, sensitivity class: insensitive (<30% means insensitive)
[1]; ECV304, 10^−6 g/ml
  Inhibitory rate, sensitivity class: insensitive (<30% means insensitive)
Vero cells
  TC50 half toxic concentration: 12.35 µg/mL (≈ 44.4 µM)

## O=C(c1ccccc1)c1ccc(O)c(O)c1O [2,3,4-trihydroxybenzophenone]
HIV-1 integrase
  IC50: 52.6 µM
[1]; ECV304, 10^−4 g/ml
  Inhibitory rate %: 89.63%
[1]; ECV304, 10^−5 g/ml
  Inhibitory rate %: 45.81%
[1]; ECV304, 10^−6 g/ml
  Inhibitory rate, sensitivity class: insensitive (<30% means insensitive)
Vero cells
  TC50 half toxic concentration: 53.42 µg/mL (≈ 232 µM)

## O=C(c1ccc(O)cc1O)c1ccc(O)cc1O [2,4,2′,4′-tetrahydroxybenzophenone]
HIV-1 integrase
  IC50: 45.6 µM
[1]; ECV304, 10^−4 g/ml
  Inhibitory rate %: 42.13%
[1]; ECV304, 10^−5 g/ml
  Inhibitory rate, sensitivity class: insensitive (<30% means insensitive)
[1]; ECV304, 10^−6 g/ml
  Inhibitory rate, sensitivity class: insensitive (<30% means insensitive)
Vero cells
  TC50 half toxic concentration: 111.11 µg/mL (≈ 451 µM)
